We go through four compounds from patent publication US20140249214A1 (AMARIN PHARMACEUTICALS IRELAND LIMITED, priority 2013, published 2014).

Data set [1] can be described thus: Phase 1 open-label crossover drug-drug interaction study: pharmacokinetics of warfarin with or without ethyl eicosapentaenoate. To be noted: for AUC0-inf LSGM (least squares geometric mean) / Cmax LSGM (least squares geometric mean): W = warfarin (25 mg) administered alone; for effect of co-administration with ethyl eicosapentaenoate on Tmax: compared with Tmax when administered alone; for AUC0-inf / AUC0-last / Cmax / Tmax / Kel: plasma.
Description: Twenty-five out of the twenty-six enrolled subjects completed the study. One enrolled subject withdrew consent and disconsinuted prematurely. […] On each of Day 8 through Day 35, all subjects received about 4 g of ethyl eicosapentaenoate (oral) as described herein.

The subject of data set [2] is international normalized ratio (INR). The data set can be described thus: Phase 1 drug-drug interaction study: anticoagulation pharmacodynamics of warfarin (INR). It counts as in vivo, healthy subjects. Also on record: AUCINR Mean (SD) / AUCINR Median / AUCINR LSGM: unit not given beside the values. The text has this: Primary anticoagulation pharmacodynamic endpoints were maximum international normalized ratio (INRmax) and plasma international normalized ratio time curve (AUCINR).

Setting [3] is: warfarin 25 mg + ethyl eicosapentaenoate 4 g.
Setting [4] is: least squares geometric mean, mixed models.

Turning to `CC(=O)C[C@H](c1ccccc1)c1c(O)c2ccccc2oc1=O` [R-Warfarin, R-warfarin], in data set [1], the “AUC0-inf LSGM (least squares geometric mean)” value is listed as 80,486 ng · h/mL, the “Cmax LSGM (least squares geometric mean)” value was 1659.6 ng/mL and the “effect of co-administration with ethyl eicosapentaenoate on Tmax” value was “did not significantly affect”. Also, in data set [1] (oral warfarin 25 mg alone), the AUC0-inf is reported as 82,620 (19,725) ng · h/mL; the AUC0-last is recorded as 77,539 (17,374) ng · h/mL; the Cmax is on record as 1766 (673) ng/mL; the Tmax is recorded as 1.0 (0.5, 9.0) h. In data set [1] (setting [3]), the AUC0-inf is 82,460 (22,798) ng · h/mL, the AUC0-last is recorded as 77,117 (19,505) ng · h/mL, the Cmax is recorded as 1865 (592) ng/mL and the Kel was 0.016 (0.005) 1/h. The Tmax in data set [1] (setting [3]) is recorded as 1.0 (0.5, 1.5) h.

As to `CC(=O)C[C@@H](c1ccccc1)c1c(O)c2ccccc2oc1=O` [S-Warfarin, S-warfarin], in data set [1], the “AUC0-inf LSGM (least squares geometric mean)” value is 58,344 ng · h/mL, the “Cmax LSGM (least squares geometric mean)” value is on record as 1715.9 ng/mL and the “effect of co-administration with ethyl eicosapentaenoate on Tmax” value is reported as “did not significantly affect”. Moreover, in data set [1] (oral warfarin 25 mg alone), the AUC0-inf is on record as 60,216 (15,009) ng · h/mL, the AUC0-last is recorded as 59,253 (15,429) ng · h/mL, the Cmax is recorded as 1836 (729) ng/mL and the Kel was 0.020 (0.005) 1/h. In addition, the Tmax in data set [1] (oral warfarin 25 mg alone) is 1.0 (0.5, 9.0) h. In data set [1] (setting [3]), the AUC0-inf was 60,253 (16,204) ng · h/mL, the AUC0-last is reported as 59,134 (16,451) ng · h/mL, the Cmax is recorded as 1973 (616) ng/mL and the Kel is listed as 0.020 (0.005) 1/h. Also, the Tmax in data set [1] (setting [3]) is recorded as 1.0 (0.5, 1.5) h.

Consider `CC(=O)CC(c1ccccc1)c1c(O)c2ccccc2oc1=O` (stereo not drawn) [Warfarin, warfarin], for which, in data set [2] (in vivo), the “AUCINR, concomitant vs warfarin alone” value is “similar” and the “INRmax, concomitant vs warfarin alone” value is recorded as “similar”. In data set [2] (setting [4]), the “AUCINR LSGM” value is 216.2 and the “INRmax LSGM” value was 1.80. Besides, the “Median time to INRmax (TINRmax), co-administered vs warfarin alone” value in data set [2] (p=0.026) is on record as “significantly lower”. Further, the “TINRmax Median” value in data set [2] (time to INRmax, warfarin 25 mg, EPA 4 g) is reported as 48.0 h. In data set [2] (warfarin 25 mg, EPA 4 g), the “AUCINR Mean (SD)” value was 217.8 (27.7), the “AUCINR Median” value worked out at 213.4, the “INRmax Mean (SD)” value was 1.86 (0.48) and the “INRmax Median” value is given as 1.74.

Take `CC/C=C\C/C=C\C/C=C\C/C=C\C/C=C\CCCC(=O)OCC` [ethyl eicosapentaenoate, all-cis eicosa-5,8,11,14,17-pentaenoic acid ethyl ester]: in data set [2] (in vivo), the “anticoagulation pharmacodynamic effects compared to warfarin alone” value is “did not have an effect”.
